Reference: EPA's ToxRefDB 2

Columns and labels:
[1] = tested on: mouse; details: Subchronic inhalation toxicity, b6c3f1, Whole-Body, dose end: 12 week, group: systemic
[2] = tested on: rabbit; details: Prenatal developmental toxicity study, himalayan, Inhalation, Whole-Body, dose end: 19 GD
[3] = tested on: mouse; details: Prenatal developmental toxicity study, other, Oral, Gavage/Intubation, dose end: 15 GD, group: developmental
[4] = systemic / in life observation / mortality / mortality + systemic / pathology gross / liver / discolored + systemic / pathology microscopic…
[5] = systemic / pathology microscopic / liver / cytomegaly
[6] = group: developmental, developmental / developmental malformation / bone / bipartite ossification + developmental / developmental malformation / bone / fused + …
[7] = group: maternal, systemic / in life observation / body weight / body weight
[8] = developmental / developmental malformation / general / [other] + developmental / developmental malformation / general / crown-rump length + …
[9] = developmental / developmental malformation / general / crown-rump length + systemic / in life observation / body weight / fetal weight

Compound: CN(C)C=O [N,N-Dimethylformamide]
- LOAEL [1, 4]: > 1200 ppm
- NOAEL [1, 4]: ≥ 1200 ppm
- LEL [1, 5]: 150 ppm
- NEL [1, 5]: < 150 ppm
- LEL [2, 6]: 450 ppm
- LOAEL [2, 6]: > 450 ppm
- NEL [2, 6]: 150 ppm
- NOAEL [2, 6]: ≥ 450 ppm
- LEL [2, 7]: 450 ppm
- LOAEL [2, 7]: > 450 ppm
- NEL [2, 7]: 150 ppm
- NOAEL [2, 7]: ≥ 450 ppm
- LOAEL [3, 8]: > 548 mg/kg/day
- NOAEL [3, 8]: ≥ 548 mg/kg/day
- LEL [3, 9]: 182 mg/kg/day
- NEL [3, 9]: < 182 mg/kg/day
